≈ marks a conversion by molar mass, not a printed value. Calls of active or inactive are those of the source. No cut-off for these calls is given here.
Legend:
Staphylococcus aureus [1] = assay: Bactericidal activity against Staphylococcus aureus; type: functional
Staphylococcus aureus [2] = assay: Antibacterial activity against Staphylococcus aureus assessed as bacterial growth inhibition at 12.5 ug/ml; type: functional, organism-based; conditions: dose 12.5 µg/ml
Salmonella typhi [3] = assay: Antibacterial activity against Salmonella typhi assessed as bacterial growth inhibition; type: functional, Salmonella enterica subsp. enterica serovar Typhi; conditions: Salmonella enterica
Staphylococcus aureus [4] = assay: Antibacterial activity against Staphylococcus aureus assessed as bacterial growth inhibition; type: functional
Shigella dysenteriae [5] = assay: Antibacterial activity against Shigella dysenteriae assessed as bacterial growth inhibition; type: functional
Proteus vulgaris [6] = assay: Antibacterial activity against Proteus vulgaris assessed as bacterial growth inhibition; type: functional
Corynebacterium = assay: Antibacterial activity against Corynebacterium assessed as bacterial growth inhibition at 12.5 ug/ml; type: functional, organism-based; conditions: dose 12.5 µg/ml
Shigella dysenteriae [7] = assay: Antibacterial activity against Shigella dysenteriae assessed as bacterial growth inhibition at 12.5 ug/ml; type: functional, organism-based; conditions: dose 12.5 µg/ml
Corynebacterium ulcerans = assay: Antibacterial activity against Corynebacterium ulcerans assessed as bacterial growth inhibition; type: functional
Salmonella typhi [8] = assay: Antibacterial activity against Salmonella typhi assessed as bacterial growth inhibition at 12.5 ug/ml; type: functional, organism-based; conditions: Salmonella enterica subsp. enterica serovar Typhi; dose 12.5 µg/ml
Pseudomonas aeruginosa [9] = assay: Antibacterial activity against Pseudomonas aeruginosa assessed as bacterial growth inhibition at 12.5 ug/ml; type: functional, organism-based; conditions: dose 12.5 µg/ml
Streptococcus pyogenes [10] = assay: Antibacterial activity against Streptococcus pyogenes assessed as bacterial growth inhibition; type: functional
Staphylococcus aureus [11] = assay: Antibacterial activity against Staphylococcus aureus assessed as inhibition of bacterial growth measured after 24 hrs by serial dilution method; type: functional
Candida albicans [12] = assay: Antifungal activity against Candida albicans assessed as fungal growth inhibition; type: functional
Candida albicans [13] = assay: Antifungal activity against Candida albicans assessed as fungal growth inhibition at 12.5 ug/ml; type: functional, organism-based; conditions: dose 12.5 µg/ml
Streptococcus pyogenes [14] = assay: Antibacterial activity against Streptococcus pyogenes assessed as bacterial growth inhibition at 12.5 ug/ml; type: functional, organism-based; conditions: dose 12.5 µg/ml
Bacillus subtilis [15] = assay: Antibacterial activity against Bacillus subtilis assessed as bacterial growth inhibition at 12.5 ug/ml; type: functional, organism-based; conditions: dose 12.5 µg/ml
Pseudomonas aeruginosa [16] = assay: Antibacterial activity against Pseudomonas aeruginosa assessed as bacterial growth inhibition; type: functional
Bacillus subtilis [17] = assay: Antibacterial activity against Bacillus subtilis assessed as bacterial growth inhibition; type: functional
Proteus vulgaris [18] = assay: Antibacterial activity against Proteus vulgaris assessed as bacterial growth inhibition at 12.5 ug/ml; type: functional, organism-based; conditions: dose 12.5 µg/ml

SMILES: CC[C@H](CC[C@@H](C)[C@H]1CC[C@H]2[C@@H]3CC=C4C[C@@H](O)CC[C@]4(C)[C@H]3CC[C@]12C)C(C)C [BETA-SITOSTEROL]
- MBC (Staphylococcus aureus [1]): 2210 µg/mL (≈ 5320 µM)
- growth inhibition (GI) (Staphylococcus aureus [2]): Active
- MBC (Salmonella typhi [3]): 25 µg/mL (≈ 60.3 µM)
- MBC (Staphylococcus aureus [4]): 50 µg/mL (≈ 121 µM)
- MBC (Shigella dysenteriae [5]): 50 µg/mL (≈ 121 µM)
- MBC (Proteus vulgaris [6]): 50 µg/mL (≈ 121 µM)
- growth inhibition (GI) (Corynebacterium): Active
- growth inhibition (GI) (Shigella dysenteriae [7]): Active
- MBC (Corynebacterium ulcerans): 25 µg/mL (≈ 60.3 µM)
- growth inhibition (GI) (Salmonella typhi [8]): Active
- growth inhibition (GI) (Pseudomonas aeruginosa [9]): Active
- MBC (Streptococcus pyogenes [10]): 50 µg/mL (≈ 121 µM)
- MIC (Staphylococcus aureus [11]): 1240 µg/mL (≈ 2990 µM)
- MFC (Candida albicans [12]): 50 µg/mL (≈ 121 µM)
- growth inhibition (GI) (Candida albicans [13]): Active
- growth inhibition (GI) (Streptococcus pyogenes [14]): Active
- growth inhibition (GI) (Bacillus subtilis [15]): Active
- MBC (Pseudomonas aeruginosa [16]): 50 µg/mL (≈ 121 µM)
- MBC (Bacillus subtilis [17]): 25 µg/mL (≈ 60.3 µM)
- growth inhibition (GI) (Proteus vulgaris [18]): Active
